The values below come from US8143316B2, “Method for treating peripheral vascular diseases” (Sucampo AG, priority 2005, dated 2012).

One series concerns Male Wistar rats. The series can be described thus: Decreased peripheral microcirculation (cutaneous tissue blood flow) induced by ET-1 infusion in rats. The class given is in vivo, rat. The following applies: 100 μg/kg i.v.; for blood pressure: ET-1 infused rats; for cutaneous tissue blood flow: flow decreased by ET-1 infusion, up to 60 min after administration, vs vehicle. As for the experimental part: Male Wistar rats (7-week-old) were used in this study. Animals were anesthetized by intraperitoneal injection of thiobutabarbital sodium (80 mg/kg). Body temperature (rectal temperature) of the animals was maintained at approximately 37° C. throughout the experiment with a heating pad. After depilating the instep of the right hind limb with a depilatory cream, the cutaneous tissue blood flow was measured continuously using a non-contact type laser Doppler flowmeter (FLO-N1, Omegawave Inc., Japan). For measurements of mean arterial blood pressure, a polyethylene catheter placed in the left femoral artery was connected to a pressure transducer (TP-400T, Nihon Koden Inc., Japan) coupled to an amplifier (AP-641G, Nihon Koden Inc., Japan). The cutaneous tissue blood flow and blood pressure were recorded and analyzed using a computer system (HEM Ver. 3.5, Notocord Systems, France). Endothelin-1 (ET-1) was infused into the femoral artery at a rate of 200 pmol/kg/min with a syringe pump via the polyethylene catheter inserted retrogradely into the caudal epigastric artery branched from the right femoral artery for 15 minutes. Infusion rate of ET-1 was decreased to 20 pmol/kg/min after the termination of 200 pmol/kg/min infusion, and the decreased amount of ET-1 infusion was kept until the end of this study. The cutaneous tissue blood flow was decreased by the infusion of ET-1 into the femoral artery. When the cutaneous tissue blood flow was reached a new steady level (25 to 50 minutes after starting ET-1 infusion), vehicle or each test compound solution was administered to the animals over 2 minutes in a volume of 1 mL/kg via the polyethylene catheter placed in the left femoral vein. The administered amount of the test compound was 100 μg/kg. The cutaneous tissue blood flow and blood pressure were measured continuously and recorded every 5 minutes for 60 minutes after the administration of vehicle or each test solution.

The subject of series [1] is male Japanese white rabbits. The series can be described thus: Intraocular pressure after topical eye application in rabbits. The class given is in vivo, rabbit. The following applies: 0.0016% topical. As for the experimental part:
Eight male Japanese white rabbits (Std: JW/CSK) weighing approximately 2.5-3.5 kg were used in this study. The same eye of each animal was treated with the test compounds and the other eye was with the vehicle consistently throughout the study with a washout period between each treatment. Thirty microliters of each test compound solution was applied topically to one eye of each animal using a micropipette (Pipetman, Gilson, Inc., France). The contralateral control eye received an equal volume of the vehicle. The animals were dosed at approximately the same time each morning. After the animals were restrained in a holder, one drop of topical anesthetic (0.4% oxybuprocaine hydrochloride) was applied to both eyes and the IOP was measured with an applanation pneumatonometer (Model 30 Classic™, Mentor O & O, Inc., USA) before dosing, and at 1, 2, 4, 6, and 8 hours after dosing.

In series [2] the test system is streptozotocin-induced diabetic rats. Nature of the series: Cutaneous tissue blood flow in streptozotocin-induced diabetic rats. It counts as in vivo, rat. As for the experimental part: Diabetes was induced by single intravenous injection of 50 mg/kg streptozotocin (STZ) in 7-week-old male Crl: CD(SD) rats. Animals with plasma glucose levels 400 mg/dL or more on day 19 after the STZ treatment were used in this study. Three weeks after the STZ injection, animals were anesthetized by an intraperitoneal injection of thiobutabarbital sodium. Body temperature (rectal temperature) of the animals was maintained at approximately 37° C. throughout the experiment with a heating pad After depilating the instep of the right hind limb with a depilatory cream, the cutaneous tissue blood flow (CTBF) was measured continuously using a non-contact type laser Doppler flowmeter (FLO-N1, Omegawave Inc., Japan). The blood pressure and heart rate were simultaneously monitored. Compound A or the vehicle was intravenously administered to the animals over 10 min.

In series [3] the test system is platelet-rich plasma (PRP). The series can be described thus: ADP-induced platelet aggregation in rabbit platelet-rich plasma. The class given is cell-based. The following applies: for Maximum aggregation: ADP-induced, mean ± S.E. of 3 rabbits; for Inhibition of platelet aggregation: vs vehicle control (100%). As for the experimental part: Four months old male Kbs: J.W. rabbits were housed in aluminum cages in an animal room controlled for roomtemperature (23-24° C.), relative humidity (55-74%), ventilation rate (10-20 times/hour) and 12-hour light/dark cycle (lighting: 7:00 a.m.-7:00 p.m.). The animals were feeded with solid diet for rabbits (120 g/animal/day) and water ad libitum from automatic eatering system. The animals were subjected to at least 6 days of quarantine and acclimation. During the period, their body weight measurements and general sign observations were conducted, and the animals judged to be in good health were used in this study.
A cannula was inserted into the common carotid artery of the rabbit under inhalation anesthesia of isoflurane. Nine parts of the blood samples obtained through the cannula were mixed with 1 part of 3.8 w/v % sodium citrate. After centrifugation of the blood samples for 10 min at 1,000 rpm, platelet-rich plasma (PRP) was collected from the top layer. Then the bottom layer was further centrifuged for 15 min at 3,000 rpm, and platelet-poor plasma (PPP) was collected from the top layer. The platelet counts of the PRP and PPP fractions were performed using an ADVIA120 Hematology system (ADVIA120, Bayer Medical Ltd.). The PRP fraction was diluted with the PPP fraction so that the platelet counts was adjusted to approximately 30×10^4 cells/μL. Thus obtained PRP (0.178 mL) was put into a cuvet, and pre-incubated on a warm bath at 37° C. for about 5 minutes. Test solution (0.022 mL) containing prostaglandin E1 or Compound A was added to the PRP. One minute later, 25 μM ADP solution (0.022 mL) was added and the degree of platelet aggregation was measured using a platelet aggregation measuring device (NBS hematolaser, Nikko Bioscience Inc.). For each test solution, a duplicate test was performed on the blood samples from 3 animals. Inhibition rate (%) was evaluated by comparing the aggregation in the test substance group with that in the vehicle control group (100%).

In another series the test system is Male GK/Jcl rats. The series can be described thus: Cutaneous tissue blood flow in spontaneous diabetes rats. It counts as in vivo, rat. As for the experimental part: Male GK/Jcl rats, a spontaneous model of non-insulin-dependent diabetes, were anesthetized by an intraperitoneal injection of thiobutabarbital sodium. Body temperature (rectal temperature) of the animals was maintained at approximately 37° C. throughout the experiment with a heating pad. After depilating the instep of the right hind limb with a depilatory cream, the cutaneous tissue blood flow (CTBF) was measured before (base line) and 20 minutes after intravenous administration of Compound A or the vehicle using a non-contact type laser Doppler flowmeter (FLO-N1, Omegawave Inc., Japan). Data was expressed as % compared with the base line cutaneous tissue blood flow.

The subject of a further series is Male Crl: CD(SD) rats. The series can be described thus: Cutaneous tissue blood flow in anesthetized rats. It counts as in vivo, rat. As for the experimental part:
Male Crl: CD(SD) rats were anesthetized by an intraperitoneal injection of thiobutabarbital sodium. Body temperature (rectal temperature) of the animals was maintained at approximately 37° C. throughout the experiment with a heating pad. After depilating the instep of the right hind limb with a depilatory cream, the cutaneous tissue blood flow CTBF) was measured before and 30 minutes after intravenous administration of Compound C (11-deoxy-13,14-dihyrdo-16,16-difluoro-PGE1) or the vehicle using a non-contact type laser Doppler flowmeter (FLO-N1, Omegawave Inc., Japan). The blood pressure and heart rate were also monitored.

Turning to `CCCCC(F)(F)C(=O)CCC1CCC(=O)C1CCCCCCC(=O)O` (centres unmarked) [Compound A, 11-deoxy-13,14-dihydro-15-keto-16,16-difluoro-PGE1], in the series with Male Wistar rats, the blood pressure result is recorded as “no significant effect” and the “cutaneous tissue blood flow” value is “significantly increased”. Also, the “IOP, 1 hr after administration” value in series [1] (30 μL, 1 hr, mean ± SE, n=8) was found to be 13.1 ± 0.6 mmHg. In series [1] (30 μL, 2 hr, mean ± SE, n=8), the “IOP, 2 hr after administration” value is listed as 14.5 ± 0.6 mmHg. In addition, the “IOP, 4 hr after administration” value in series [1] (30 μL, 4 hr, mean ± SE, n=8) came to 13.8 ± 0.8 mmHg. The “IOP, 6 hr after administration” value in series [1] (30 μL, 6 hr, mean ± SE, n=8) is given as 15.1 ± 1.0 mmHg. In series [1] (30 μL, 8 hr, mean ± SE, n=8), the “IOP, 8 hr after administration” value amounted to 17.5 ± 1.3 mmHg. Further, the “IOP, Pre” value in series [1] (30 μL, before dosing (baseline), mean ± SE, n=8) is recorded as 17.0 ± 0.8 mmHg. In addition, the “intraocular pressure (in words)” value in series [1] (vs vehicle-treated contralateral eye) is on record as “significantly lowered”. The “Cutaneous Tissue Blood Flow, Pre” value in series [2] (30 μg/kg i.v. over 10 min, before dosing (baseline), mean ± S.E., n=5) came to 4.8 ± 0.5 mL/min/100 g tissue. Also, in series [2] (STZ diabetic rats, i.v.), the “blood pressure (BP)” value was “no effects” and the heart rate result was “no effects”. The “cutaneous tissue blood flow (in words)” value in series [2] (STZ diabetic rats, i.v., compared with vehicle) is “significantly increased”. For the same compound, in series [3] (1 × 10^−5 g/mL), the Maximum aggregation is on record as 36.8 ± 3.1% and the “Inhibition of platelet aggregation” value is recorded as −1.4%. In series [3] (1 × 10^−6 g/mL), the Maximum aggregation came to 36.2 ± 4.0% and the “Inhibition of platelet aggregation” value turned out to be 0.3%. Moreover, in series [3] (1 × 10^−7 g/mL), the Maximum aggregation is given as 35.2 ± 3.9% and the “Inhibition of platelet aggregation” value is recorded as 3.0%. The “effect on platelet aggregation (in words)” value in series [3] (up to the highest concentration (1×10^−5 g/mL) tested) was “no effect”. For the same compound, in the series with Male GK/Jcl rats (20 μg/kg i.v., 20 minutes after administration, mean ± S.E., n=5), the “Cutaneous Tissue Blood Flow compared with the base line” value worked out at 122 ± 1 %. The “cutaneous tissue blood flow (in words)” value in the series on Male GK/Jcl rats (spontaneous diabetes rats, i.v., compared with vehicle) was “significantly increased”.
As for `CCCCC(F)(F)C(=O)CCC1CCC(=O)C1CCCCCCC(=O)OC(C)C` (centres unmarked) [Compound B, 11-deoxy-13,14-dihydro-15-keto-16,16-difluoro-PGE1 isopropyl ester], in the series on Male Wistar rats, the blood pressure result was “no significant effect” and the “cutaneous tissue blood flow” value was “significantly increased”.
With `CCCCC(F)(F)C(O)CCC1CCC(=O)C1CCCCCCC(=O)O` (centres unmarked) [Compound C, 11-deoxy-13,14-dihyrdo-16,16-difluoro-PGE1], the “Cutaneous Tissue Blood Flow, After administration” value in the series on Male Crl: CD(SD) rats (10 μg/kg i.v., 30 minutes after administration, mean ± S.E., n=5) amounted to 13.0 ± 0.2 mL/min/100 g tissue. Moreover, the “Cutaneous Tissue Blood Flow, Before administration” value in the series on Male Crl: CD(SD) rats (10 μg/kg i.v., before administration (baseline), mean ± S.E., n=5) is 11.6 ± 0.3 mL/min/100 g tissue. Further, in the series on Male Crl: CD(SD) rats (i.v.), the blood pressure entry was “no effects” and the heart rate entry was “no effects”. In addition, the “cutaneous tissue blood flow (in words)” value in the series with Male Crl: CD(SD) rats (i.v., compared with vehicle treatment) is reported as “significantly increased”.
With `CCCCC[C@H](O)/C=C/[C@H]1[C@H](O)CC(=O)[C@@H]1CCCCCCC(=O)O` [PGE1, prostaglandin E1, reference compound], the Maximum aggregation stood at 4.0 ± 0.7 % in series [3] (1 × 10^−6 g/mL), 3.2 ± 0.6 % in series [3] (1 × 10^−7 g/mL) and 28.7 ± 3.6% in series [3] (1 × 10^−8 g/mL). Moreover, the entries for the “Inhibition of platelet aggregation” value in series [3] (1 × 10^−6 g/mL), in series [3] (1 × 10^−7 g/mL) and in series [3] (1 × 10^−8 g/mL) were 89.0%, 91.2% and 20.9%, respectively.
